This passage reports Activity, selectivity ratio and IC50 results from ChEMBL document CHEMBL1153808, “Antimalarial benzylisoquinoline alkaloid from the rainforest tree Doryphora sassafras” (J Nat Prod, 2009).

Data set [1] has as its system HEK293. The data set can be described thus: Cytotoxicity against human HEK293 cells at 2 uM after 72 hrs by Alamar blue assay. It is filed as cell-based. To be noted: hek293, 72 h.
Data set [2] is described as follows: in vitro. To be noted: human, HEK293 cells.
Description: Selectivity index, ratio of antimicrobial activity against Plasmodium falciparum Dd2 over cytotoxicity against human HEK293 cells
Data set [3] can be described thus: in vitro. To be noted: human, HEK293 cells. This is another data set of the same source.
Description: Selectivity index, ratio of antimicrobial activity against Plasmodium falciparum 3D7 over cytotoxicity against human HEK293 cells
Data set [4] deals with Plasmodium falciparum. Description: microbe, parasite or virus in culture. To be noted: Dd2, 72 h.
Description: Antimalarial activity against chloroquine-resistant Plasmodium falciparum Dd2 after 72 hrs by DAPI staining method
Data set [5] has as its system Plasmodium falciparum. Description: microbe, parasite or virus in culture. Conditions: 3D7, 72 h.
Description: Antimalarial activity against chloroquine-sensitive Plasmodium falciparum 3D7 after 72 hrs by DAPI staining method
For data set [6], the system named is HEK293. Description: Cytotoxicity against human HEK293 cells at 120 uM after 72 hrs by Alamar blue assay. It is filed as cell-based. Conditions: hek293, 72 h.

Molecules are shown by their SMILES. Some results are limits rather than exact numbers.

In turn, `CCN(CC)CCCC(C)Nc1ccnc2cc(Cl)ccc12` (stereo unspecified) [CHLOROQUINE] yielded an Activity in the data set with HEK293 [1] of 0%.
For `C[C@@H]1CC[C@H]2[C@@H](C)C(=O)O[C@@H]3O[C@@]4(C)CC[C@@H]1[C@]32OO4` [ARTEMISININ], the Activity with HEK293 [1] stood at 0%. For the same compound, the selectivity ratio in “in vitro [2]” and in the data set “in vitro [3]” was over 100 throughout. Besides, the IC50 with Plasmodium falciparum [4] and in the data set on Plasmodium falciparum [5] was 0.021 µM in each case.
For `C[n+]1ccc2cc3c(cc2c1Cc1ccc(O)cc1)OCO3.O=C([O-])C(F)(F)F`, the selectivity ratio is over 27 in “in vitro [2]” and over 40 in “in vitro [3]”. This compound displayed an Activity in the data set with HEK293 [6] of 0%. In addition, the IC50 in the data set on Plasmodium falciparum [4] was determined as 3 µM; in the data set on Plasmodium falciparum [5], 4.4 µM.
As to `COc1ccc2c(c1O)-c1c(OC)c(OC)cc3c1[C@H](C2)NCC3.O=C(O)C(F)(F)F`, the selectivity ratio in “in vitro [2]” and in the data set “in vitro [3]” was over 6 each time. The compound further displayed an Activity in the data set on HEK293 [6] of 0%. Also, the concentration for half-maximal inhibition (IC50) was 17 µM in the data set on Plasmodium falciparum [4] and 19 µM in the data set with Plasmodium falciparum [5].
